Patent US20080058373A1, “Compositions and Methods for Treating or Preventing Glaucoma or Progression Thereof” (priority 2006, published 2008)

Key:
Prostaglandin E2 (PGE2) = Prostaglandin E2 (PGE2) measurement in aqueous humor, rabbit paracentesis model; format: in vivo; conditions: second paracentesis, group mean
Description: Each rabbit was placed in a restraint device and tagged with the alphanumeric code. The formulations were instilled (50 μl) into the conjunctival sac of both eyes 180, 120, 90 and 30 min before the first paracentesis; then 15, 30, 90 min after the first paracentesis. To perform the first paracentesis the animals were anaesthetized by intravenous injection of 5 mg/kg Zoletil® (Virbac; 2.5 mg/kg tiletamine HCl and 2.5 mg/kg zolazepam HCl) and one drop of local anesthetic (Novesina®, Novartis) was administered to the eye. Anterior chamber paracentesis was performed with a 26 G needle attached to a tuberculin syringe; the needle was introduced into the anterior chamber through the cornea, taking care not to damage the tissues. Two hours after the first paracentesis, the animals were sacrificed with 0.4 ml Tanax® (Intervet International B.V.) and the second paracentesis was performed. About 100 μl of aqueous humor were removed at the second paracentesis. Aqueous humor was immediately split in four aliquots and stored at −80° C. until analysis. Then both eyes were enucleated and the iris-ciliary body was carefully excised, placed in polypropylene tubes, and stored at −80° C. until analysis.
For the quantitative determination of PGE2 in the aqueous humor we used the PGE2 Immunoassay kit (R&D Systems; Cat.No. KGE004; Lot.No. 240010). Eleven microliters or 16 μl of aqueous humor were diluted to 110 μl or 160 μl with the calibrator diluent solution provided with the kit. One hundred microliters of samples and of standards were load into a 96-well plate and recorded in a plate layout. Samples were treated following the assay procedure described in the kit. A microplate reader (GDV, Italy; model DV 990 B/V6) set at 450 nm (wavelength correction at 540 nm) was used for making the calibration and analyzing the samples.

[1] = system: New Zealand White rabbits; test: Intraocular pressure (IOP) in rabbits, topical dosing four times daily; format: in vivo; conditions: for Intraocular Pressure (MEAN): treated right eyes, A.M. readings
Description: Seventy-five rabbits underwent two weeks of IOP training to condition them for IOP measurement. IOP was determined for both eyes of each animal using a Medtronic Solan, Model 30 classic pneumatonometer. Proparacaine hydrochloride 0.5% (1 drop) was delivered to each eye prior to IOP measurement. A two-point diurnal curve was established: IOP was recorded on Monday, Wednesday, and Friday of each week, at 8 a.m. and 12 p.m., with a ±1 hour range for each of these times. The time of the measurements was recorded.
On Days 1-31, animals received daily topical doses of the appropriate test article into the right eye. Animals were dosed four times per day, with doses administered 2 hours apart. Doses were administered using a calibrated 50-μL pipette. The eyelids were held close for 10 seconds immediately following dosing. The time of each dose administration was recorded.
Intraocular pressure (“IOP”) was determined for both eyes of each animal on Days 3, 5, 10, 12, 16, 18, 22, 24, 26, 30, and 32. IOP was evaluated with a Medtronic Solan, Model 30 classic pneumatonometer. Proparacaine hydrochloride 0.5% (1 drop) was delivered to each eye prior to IOP measurement. IOP was measured on Monday, Wednesday, and Friday of each week. A two-point diurnal curve was established: IOP was recorded at 8 a.m. and 12 p.m. on Day 3, and at 8 a.m. and 2 p.m. on later days, with a ±1 hour range for each of these times. The time of the measurements was recorded.
Descriptive statistics were prepared for IOP data of each treatment group (left and right eyes separately) at each measurement interval. The statistics included the number of observations (“N”), mean, standard deviation (“STD”), and standard error (“SEM”). Statistical analyses were conducted on IOP results using Statistical Analysis Systems (SAS Institute, Inc., Cary, N.C., V8.0). Parameters were evaluated using analysis of variance/GLM Procedure followed by Tukey's Standardized Range Test (Tukey, 1985) for post hoc comparisons of group means. The level of significance was set at a probability of p<0.05 for all statistical procedures. Group IOP means were compared at each interval, with left and right eyes compared separately.

Compound: Cc1ccc2c(NCC(O)(CC(C)(C)c3cc(F)cc4c3OCC4)C(F)(F)F)cccc2n1 (stereo not drawn)
- Levels of PGE2 in aqueous humor, Mean (Prostaglandin E2 (PGE2); 0.1% topical): 1.452 ng/mL
- Levels of PGE2 in aqueous humor, Mean (Prostaglandin E2 (PGE2); 0.5% topical): 1.384 ng/mL
- Levels of PGE2 in aqueous humor, Mean (Prostaglandin E2 (PGE2); 1% topical): 2.168 ng/mL
- Intraocular Pressure in Untreated Left Eyes (A.M. Readings), MEAN ([1]; 1 mg/g (Group D), Day 3): 23.5 mmHg
- Intraocular Pressure in Untreated Left Eyes (A.M. Readings), MEAN ([1]; 1 mg/g (Group D), Day 5): 24.4 mmHg
- Intraocular Pressure in Untreated Left Eyes (A.M. Readings), MEAN ([1]; 1 mg/g (Group D), Day 10): 24.5 mmHg
- Intraocular Pressure in Untreated Left Eyes (A.M. Readings), MEAN ([1]; 1 mg/g (Group D), Day 12): 22.2 mmHg
- Intraocular Pressure in Untreated Left Eyes (A.M. Readings), MEAN ([1]; 1 mg/g (Group D), Day 16): 21.6 mmHg
- Intraocular Pressure in Untreated Left Eyes (A.M. Readings), MEAN ([1]; 1 mg/g (Group D), Day 18): 23.3 mmHg
- Intraocular Pressure in Untreated Left Eyes (A.M. Readings), MEAN ([1]; 1 mg/g (Group D), Day 22): 22.4 mmHg
- Intraocular Pressure in Untreated Left Eyes (A.M. Readings), MEAN ([1]; 1 mg/g (Group D), Day 24): 22.4 mmHg
- Intraocular Pressure in Untreated Left Eyes (A.M. Readings), MEAN ([1]; 1 mg/g (Group D), Day 26): 22.9 mmHg
- Intraocular Pressure in Untreated Left Eyes (A.M. Readings), MEAN ([1]; 1 mg/g (Group D), Day 30): 23.4 mmHg
- Intraocular Pressure in Untreated Left Eyes (A.M. Readings), MEAN ([1]; 1 mg/g (Group D), Day 32): 24.1 mmHg
- Intraocular Pressure in Untreated Left Eyes (A.M. Readings), MEAN ([1]; 1 mg/g (Group D), Pre-Study): 23.9 mmHg
- Intraocular Pressure in Untreated Left Eyes (A.M. Readings), MEAN ([1]; 5 mg/g (Group C), Day 3): 23.8 mmHg
- Intraocular Pressure in Untreated Left Eyes (A.M. Readings), MEAN ([1]; 5 mg/g (Group C), Day 5): 24.4 mmHg
- Intraocular Pressure in Untreated Left Eyes (A.M. Readings), MEAN ([1]; 5 mg/g (Group C), Day 10): 24.6 mmHg
- Intraocular Pressure in Untreated Left Eyes (A.M. Readings), MEAN ([1]; 5 mg/g (Group C), Day 12): 23.8 mmHg
- Intraocular Pressure in Untreated Left Eyes (A.M. Readings), MEAN ([1]; 5 mg/g (Group C), Day 16): 23.4 mmHg
- Intraocular Pressure in Untreated Left Eyes (A.M. Readings), MEAN ([1]; 5 mg/g (Group C), Day 18): 21.9 mmHg
- Intraocular Pressure in Untreated Left Eyes (A.M. Readings), MEAN ([1]; 5 mg/g (Group C), Day 22): 21.6 mmHg
- Intraocular Pressure in Untreated Left Eyes (A.M. Readings), MEAN ([1]; 5 mg/g (Group C), Day 24): 22.1 mmHg
- Intraocular Pressure in Untreated Left Eyes (A.M. Readings), MEAN ([1]; 5 mg/g (Group C), Day 26): 21.7 mmHg
- Intraocular Pressure in Untreated Left Eyes (A.M. Readings), MEAN ([1]; 5 mg/g (Group C), Day 30): 22.6 mmHg
- Intraocular Pressure in Untreated Left Eyes (A.M. Readings), MEAN ([1]; 5 mg/g (Group C), Day 32): 23.1 mmHg
- Intraocular Pressure in Untreated Left Eyes (A.M. Readings), MEAN ([1]; 5 mg/g (Group C), Pre-Study): 24.2 mmHg
- Intraocular Pressure in Untreated Left Eyes (A.M. Readings), MEAN ([1]; 10 mg/g (Group B), Day 3): 23.3 mmHg
- Intraocular Pressure in Untreated Left Eyes (A.M. Readings), MEAN ([1]; 10 mg/g (Group B), Day 5): 23.4 mmHg
- Intraocular Pressure in Untreated Left Eyes (A.M. Readings), MEAN ([1]; 10 mg/g (Group B), Day 10): 24.0 mmHg
- Intraocular Pressure in Untreated Left Eyes (A.M. Readings), MEAN ([1]; 10 mg/g (Group B), Day 12): 23.8 mmHg
- Intraocular Pressure in Untreated Left Eyes (A.M. Readings), MEAN ([1]; 10 mg/g (Group B), Day 16): 22.9 mmHg
- Intraocular Pressure in Untreated Left Eyes (A.M. Readings), MEAN ([1]; 10 mg/g (Group B), Day 18): 21.2 mmHg
- Intraocular Pressure in Untreated Left Eyes (A.M. Readings), MEAN ([1]; 10 mg/g (Group B), Day 22): 21.8 mmHg
- Intraocular Pressure in Untreated Left Eyes (A.M. Readings), MEAN ([1]; 10 mg/g (Group B), Day 24): 20.2 mmHg
- Intraocular Pressure in Untreated Left Eyes (A.M. Readings), MEAN ([1]; 10 mg/g (Group B), Day 26): 21.7 mmHg
- Intraocular Pressure in Untreated Left Eyes (A.M. Readings), MEAN ([1]; 10 mg/g (Group B), Day 30): 22.7 mmHg
- Intraocular Pressure in Untreated Left Eyes (A.M. Readings), MEAN ([1]; 10 mg/g (Group B), Day 32): 22.9 mmHg
- Intraocular Pressure in Untreated Left Eyes (A.M. Readings), MEAN ([1]; 10 mg/g (Group B), Pre-Study): 23.8 mmHg
- Intraocular Pressure (MEAN) ([1]; Day 3, 1 mg/g (Group D)): 23.0 mmHg
- Intraocular Pressure (MEAN) ([1]; Day 3, 5 mg/g (Group C)): 23.7 mmHg
- Intraocular Pressure (MEAN) ([1]; Day 3, 10 mg/g (Group B)): 22.7 mmHg
- Intraocular Pressure (MEAN) ([1]; Day 5, 1 mg/g (Group D)): 24.7 mmHg
- Intraocular Pressure (MEAN) ([1]; Day 5, 5 mg/g (Group C)): 24.7 mmHg
- Intraocular Pressure (MEAN) ([1]; Day 5, 10 mg/g (Group B)): 23.8 mmHg
- Intraocular Pressure (MEAN) ([1]; Day 10, 1 mg/g (Group D)): 24.8 mmHg
- Intraocular Pressure (MEAN) ([1]; Day 10, 5 mg/g (Group C)): 25.2 mmHg
- Intraocular Pressure (MEAN) ([1]; Day 10, 10 mg/g (Group B)): 24.5 mmHg
- Intraocular Pressure (MEAN) ([1]; Day 12, 1 mg/g (Group D)): 23.4 mmHg
- Intraocular Pressure (MEAN) ([1]; Day 12, 5 mg/g (Group C)): 25.0 mmHg
- Intraocular Pressure (MEAN) ([1]; Day 12, 10 mg/g (Group B)): 23.9 mmHg
- Intraocular Pressure (MEAN) ([1]; Day 16, 1 mg/g (Group D)): 22.1 mmHg
- Intraocular Pressure (MEAN) ([1]; Day 16, 5 mg/g (Group C)): 24.3 mmHg
- Intraocular Pressure (MEAN) ([1]; Day 16, 10 mg/g (Group B)): 23.4 mmHg
- Intraocular Pressure (MEAN) ([1]; Day 18, 1 mg/g (Group D)): 23.7 mmHg
- Intraocular Pressure (MEAN) ([1]; Day 18, 5 mg/g (Group C)): 23.9 mmHg
- Intraocular Pressure (MEAN) ([1]; Day 18, 10 mg/g (Group B)): 22.3 mmHg
- Intraocular Pressure (MEAN) ([1]; Day 22, 1 mg/g (Group D)): 23.2 mmHg
- Intraocular Pressure (MEAN) ([1]; Day 22, 5 mg/g (Group C)): 22.4 mmHg
- Intraocular Pressure (MEAN) ([1]; Day 22, 10 mg/g (Group B)): 22.4 mmHg
- Intraocular Pressure (MEAN) ([1]; Day 24, 1 mg/g (Group D)): 22.1 mmHg
- Intraocular Pressure (MEAN) ([1]; Day 24, 5 mg/g (Group C)): 23.8 mmHg
- Intraocular Pressure (MEAN) ([1]; Day 24, 10 mg/g (Group B)): 21.2 mmHg
- Intraocular Pressure (MEAN) ([1]; Day 26, 1 mg/g (Group D)): 23.1 mmHg
- Intraocular Pressure (MEAN) ([1]; Day 26, 5 mg/g (Group C)): 22.1 mmHg
- Intraocular Pressure (MEAN) ([1]; Day 26, 10 mg/g (Group B)): 21.8 mmHg
- Intraocular Pressure (MEAN) ([1]; Day 30, 1 mg/g (Group D)): 24.2 mmHg
- Intraocular Pressure (MEAN) ([1]; Day 30, 5 mg/g (Group C)): 22.9 mmHg
- Intraocular Pressure (MEAN) ([1]; Day 30, 10 mg/g (Group B)): 22.7 mmHg
